The values that follow come from PMC10995199, “Architecture and regulation of filamentous human cystathionine beta-synthase” (Nature Communications, 2024).

Assay [1] concerns the target T1, CBS^Δ516–525 (Homo sapiens, UniProt P35520, DEL516-525).
T1 construct: full-length with regulatory domain loop 516-525 deleted, E. coli Rosetta (DE3); dimer; no C-terminal His-tag
T1 sequence (P35520 with tags, fused parts or gaps DEL516-525): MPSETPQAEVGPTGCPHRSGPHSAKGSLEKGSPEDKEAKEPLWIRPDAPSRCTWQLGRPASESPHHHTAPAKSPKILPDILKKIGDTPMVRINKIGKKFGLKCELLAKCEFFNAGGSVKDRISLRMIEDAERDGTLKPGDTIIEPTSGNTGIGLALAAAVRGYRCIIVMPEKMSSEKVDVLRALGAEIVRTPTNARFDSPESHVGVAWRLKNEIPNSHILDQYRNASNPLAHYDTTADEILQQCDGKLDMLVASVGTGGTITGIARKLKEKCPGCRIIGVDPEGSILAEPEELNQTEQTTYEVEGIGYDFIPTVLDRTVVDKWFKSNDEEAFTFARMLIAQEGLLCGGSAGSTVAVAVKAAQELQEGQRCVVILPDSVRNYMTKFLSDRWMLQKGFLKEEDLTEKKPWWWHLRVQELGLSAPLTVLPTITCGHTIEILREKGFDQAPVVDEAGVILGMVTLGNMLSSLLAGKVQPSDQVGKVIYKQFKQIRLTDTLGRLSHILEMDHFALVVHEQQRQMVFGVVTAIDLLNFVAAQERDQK
In words: AzMC fluorescence H2S production. Type of assay: biochemical. Conditions: read-out: Kact.

In assay [2] the target is T1, CBS^Δ516–525. As to the kind of experiment: ITC. Type of assay: binding. Conditions: 25 °C, 20 mM HEPES pH 7.4; two-site fit.

On to `C[S+](CC[C@H](N)C(=O)O)C[C@H]1O[C@@H](n2cnc3c(N)ncnc32)[C@H](O)[C@@H]1O` (stereo partly drawn) [S-adenosyl-L-methionine], for which the EC50 on CBS^Δ516–525 [1] fell in the range of 26 to 36 µM. Besides, the Kd result on CBS^Δ516–525 [2] was “also presented two events, though this construct is dimeric”.
